Test results: ChEMBL document CHEMBL3885881, “DrugMatrix”

Organism: Rattus norvegicus
Assay: DrugMatrix - Regimen: Daily Repeat
Assay type: toxicity, organism-based, Sprague-Dawley
Set-up: regimen Daily Repeat, gender Male, age 6-8 weeks
Conditions: in vivo, po, route oral GAVAGE, vehicle .5 % CMC; for ABSOLUTE BASOPHIL / ABSOLUTE EOSINOPHIL / ABSOLUTE LYMPHOCYTE / ABSOLUTE MONOCYTE / ABSOLUTE SEGMENTED NEUTROPHIL / BASOPHIL / EOSINOPHIL / ERYTHROCYTE COUNT / HEMATOCRIT / HEMOGLOBIN / LEUKOCYTE COUNT / LYMPHOCYTE / MEAN CORPUSCULAR HEMOGLOBIN / MEAN CORPUSCULAR HEMOGLOBIN CONCENTRATION / MEAN CORPUSCULAR VOLUME / MONOCYTE / NEUTROPHIL / NUCLEATED RED BLOOD CELLS / PLATELET COUNT: tissue Blood; for ALANINE AMINOTRANSFERASE / ALBUMIN / ALKALINE PHOSPHATASE / ASPARTATE AMINOTRANSFERASE / BLOOD UREA NITROGEN / CARBON DIOXIDE / CHLORIDE / CHOLESTEROL / CREATINE PHOSPHOKINASE / CREATININE / GLUCOSE / LACTATE DEHYDROGENASE / LIPASE / PHOSPHORUS / POTASSIUM / SODIUM / TOTAL BILIRUBIN / TOTAL PROTEIN / URIC ACID: tissue Plasma
[1] = 100 mg/kg, 120 h, dose level Low, time 5 day
[2] = 2500 mg/kg, 72 h, dose level High, time 3 day
[3] = 2500 mg/kg, 120 h, dose level High, time 5 day

## COC1=C(OC)C(=O)C(CCCCCCCCCCO)=C(C)C1=O [IDEBENONE]
[1]
  ABSOLUTE BASOPHIL: 0 CELLS/uL
  ABSOLUTE EOSINOPHIL: 0 CELLS/uL
  ABSOLUTE LYMPHOCYTE: 14055 CELLS/uL
  ABSOLUTE MONOCYTE: 144.33 CELLS/uL
  ABSOLUTE SEGMENTED NEUTROPHIL: 1000.67 CELLS/uL
  BASOPHIL: 0%
  EOSINOPHIL: 0%
  ERYTHROCYTE COUNT: 5.62 x10E6/uL
  HEMATOCRIT: 35.7%
  HEMOGLOBIN: 14.47 G/DL
  LEUKOCYTE COUNT: 15.2 x10E3/uL
  LYMPHOCYTE: 92.33%
  MEAN CORPUSCULAR HEMOGLOBIN: 25.8 pg
  MEAN CORPUSCULAR HEMOGLOBIN CONCENTRATION: 40.57 G/DL
  MEAN CORPUSCULAR VOLUME: 63.63 fL
  MONOCYTE: 1%
  NEUTROPHIL: 6.67%
  NUCLEATED RED BLOOD CELLS: 0.33 /100WBC
  PLATELET COUNT: 1018.67 x10E3/uL
  ALANINE AMINOTRANSFERASE: 63.67 u/L
  ALBUMIN: 4.47 G/DL
  ALKALINE PHOSPHATASE: 410 u/L
  ASPARTATE AMINOTRANSFERASE: 93 u/L
  BLOOD UREA NITROGEN: 16 mg/dL
  CARBON DIOXIDE: 32.33 mmol/L
  CHLORIDE: 102.67 MEQ/L
  CHOLESTEROL: 71.67 mg/dL
  CREATINE PHOSPHOKINASE: 369.33 u/L
  CREATININE: 0.13 mg/dL
  GLUCOSE: 152.33 mg/dL
  LACTATE DEHYDROGENASE: 136 u/L
  LIPASE: 10.33 u/L
  PHOSPHORUS: 11.63 mg/dL
  POTASSIUM: 6.29 MEQ/L
  SODIUM: 145.4 MEQ/L
  TOTAL BILIRUBIN: 0.13 mg/dL
  TOTAL PROTEIN: 6.13 G/DL
  URIC ACID: 1.03 mg/dL
[2]
  ABSOLUTE BASOPHIL: 0 CELLS/uL
  ABSOLUTE EOSINOPHIL: 0 CELLS/uL
  ABSOLUTE LYMPHOCYTE: 12762.67 CELLS/uL
  ABSOLUTE MONOCYTE: 85.33 CELLS/uL
  ABSOLUTE SEGMENTED NEUTROPHIL: 1385.33 CELLS/uL
  BASOPHIL: 0%
  EOSINOPHIL: 0%
  ERYTHROCYTE COUNT: 5.73 x10E6/uL
  HEMATOCRIT: 36.83%
  HEMOGLOBIN: 14 G/DL
  LEUKOCYTE COUNT: 14.23 x10E3/uL
  LYMPHOCYTE: 89.33%
  MEAN CORPUSCULAR HEMOGLOBIN: 24.43 pg
  MEAN CORPUSCULAR HEMOGLOBIN CONCENTRATION: 38 G/DL
  MEAN CORPUSCULAR VOLUME: 64.3 fL
  MONOCYTE: 0.67%
  NEUTROPHIL: 10%
  NUCLEATED RED BLOOD CELLS: 0.33 /100WBC
  PLATELET COUNT: 1207.33 x10E3/uL
  ALANINE AMINOTRANSFERASE: 63.67 u/L
  ALBUMIN: 4.23 G/DL
  ALKALINE PHOSPHATASE: 312.33 u/L
  ASPARTATE AMINOTRANSFERASE: 80.67 u/L
  BLOOD UREA NITROGEN: 13.67 mg/dL
  CARBON DIOXIDE: 32.33 mmol/L
  CHLORIDE: 103.67 MEQ/L
  CHOLESTEROL: 71.33 mg/dL
  CREATINE PHOSPHOKINASE: 242.67 u/L
  CREATININE: 0.15 mg/dL
  GLUCOSE: 157.67 mg/dL
  LACTATE DEHYDROGENASE: 80.67 u/L
  LIPASE: 11 u/L
  PHOSPHORUS: 10.1 mg/dL
  POTASSIUM: 6.3 MEQ/L
  SODIUM: 144.83 MEQ/L
  TOTAL BILIRUBIN: 0.17 mg/dL
  TOTAL PROTEIN: 5.33 G/DL
  URIC ACID: 1.27 mg/dL
[3]
  ABSOLUTE BASOPHIL: 0 CELLS/uL
  ABSOLUTE EOSINOPHIL: 79.33 CELLS/uL
  ABSOLUTE LYMPHOCYTE: 11851 CELLS/uL
  ABSOLUTE MONOCYTE: 40.67 CELLS/uL
  ABSOLUTE SEGMENTED NEUTROPHIL: 1262.33 CELLS/uL
  BASOPHIL: 0%
  EOSINOPHIL: 0.67%
  ERYTHROCYTE COUNT: 5.54 x10E6/uL
  HEMATOCRIT: 33.87%
  HEMOGLOBIN: 13.77 G/DL
  LEUKOCYTE COUNT: 13.23 x10E3/uL
  LYMPHOCYTE: 89.33%
  MEAN CORPUSCULAR HEMOGLOBIN: 24.87 pg
  MEAN CORPUSCULAR HEMOGLOBIN CONCENTRATION: 40.67 G/DL
  MEAN CORPUSCULAR VOLUME: 61.17 fL
  MONOCYTE: 0.33%
  NEUTROPHIL: 9.67%
  NUCLEATED RED BLOOD CELLS: 0 /100WBC
  PLATELET COUNT: 1402 x10E3/uL
  ALANINE AMINOTRANSFERASE: 63 u/L
  ALBUMIN: 4.47 G/DL
  ALKALINE PHOSPHATASE: 280.33 u/L
  ASPARTATE AMINOTRANSFERASE: 108 u/L
  BLOOD UREA NITROGEN: 18.33 mg/dL
  CARBON DIOXIDE: 30 mmol/L
  CHLORIDE: 101.33 MEQ/L
  CHOLESTEROL: 63.33 mg/dL
  CREATINE PHOSPHOKINASE: 512 u/L
  CREATININE: 0.19 mg/dL
  GLUCOSE: 146.67 mg/dL
  LACTATE DEHYDROGENASE: 149.33 u/L
  LIPASE: 8.67 u/L
  PHOSPHORUS: 9.97 mg/dL
  POTASSIUM: 6.03 MEQ/L
  SODIUM: 145.03 MEQ/L
  TOTAL BILIRUBIN: 0.23 mg/dL
  TOTAL PROTEIN: 6.1 G/DL
  URIC ACID: 0.9 mg/dL
